The text below walks through data of patent US7388016B2, “Dibenzonaphthyridine derivatives and methods of use thereof” (Wyeth, priority 2005, dated 2008).

The target in this assay is T1, PDK-1 (Homo sapiens, UniProt O15530).
T1 sequence (O15530 1-556): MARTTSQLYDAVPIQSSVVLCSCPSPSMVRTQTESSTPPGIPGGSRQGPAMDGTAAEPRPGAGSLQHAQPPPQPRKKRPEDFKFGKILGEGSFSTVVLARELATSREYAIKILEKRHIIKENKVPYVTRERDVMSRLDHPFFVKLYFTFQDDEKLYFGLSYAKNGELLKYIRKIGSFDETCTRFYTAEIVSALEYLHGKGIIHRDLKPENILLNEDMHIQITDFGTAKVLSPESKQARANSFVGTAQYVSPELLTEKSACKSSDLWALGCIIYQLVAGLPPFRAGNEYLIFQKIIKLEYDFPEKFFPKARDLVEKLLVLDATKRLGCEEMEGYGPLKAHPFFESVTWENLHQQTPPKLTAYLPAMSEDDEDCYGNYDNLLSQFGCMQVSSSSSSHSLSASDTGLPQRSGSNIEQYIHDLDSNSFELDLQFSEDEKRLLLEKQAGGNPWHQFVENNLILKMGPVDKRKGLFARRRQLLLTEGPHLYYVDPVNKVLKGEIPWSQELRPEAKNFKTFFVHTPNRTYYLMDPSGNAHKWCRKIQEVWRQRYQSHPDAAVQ
The experiment in a line: In vitro PDK-1 inhibition ELISA assay (phosphorylation of SGK1 on Threonine 256). The format is biochemical. Particulars: PDK-1 phosphorylates 6xHIS tagged SGK1, 17 minutes reaction, chemiluminescent detection. As to the method:
The ability of illustrative Dibenzonaphthyridine Derivatives to inhibit PDK-1 in vitro can be determined using the ELISA assay as decribed in Kobayashi et al., Biochem. J. 339:319-328 (1999) and Park et al., EMBO J. 18:3024-3033 (1999).
In this in vitro assay, PDK-1 kinase phosphorylates SGK1 on Threonine 256. After 17 minutes, the reaction is quenched via the addition of urea. The 6×HIS tagged SGK1 is then bound to 96 well Ni-NTA HisSorb plates and the phosphorylated SGK1 is detected using rabbit derived anti-phospho SGK antibody as the primary antibody and HRP coupled anti-rabbit antibody as the secondary antibody. HRP is then detected using a Chemiluminescent Substrate.
In general terms: An ELISA detects its analyte on a solid surface through an enzyme-linked reagent.

In general, IC50 refers to the concentration that gives 50% inhibition. Low readings indicate higher potency, high ones lower potency.

Consider `CCOCCOc1cc2ncc3c(N)nc4c(C)c(N)ccc4c3c2cc1OC` [Ib-47, 10-(2-ethoxyethoxy)-11-methoxy-4-methyldibenzo[c,f]-2,7-naphthyridine-3,6-diamine], for which half-maximal inhibition (IC50) required 172 nM. The compound `COc1cc2c(cc1OCCCOCc1ccccc1)ncc1c(N)nc3c(C)c(N)ccc3c12` [Ib-42, 10-[3-(benzyloxy)propoxy]-11-methoxy-4-methyldibenzo[c,f]-2,7-naphthyridine-3,6-diamine] registered an IC50 of 2440 nM. `COc1cc2c(cc1OCCC1CCN(C)CC1)ncc1c(N)nc3c(C)c(N)ccc3c12` [Ib-33, 11-methoxy-4-methyl-10-[2-(1-methylpiperidin-4-yl)ethoxy]dibenzo[c,f]-2,7-naphthyridine-3,6-diamine] showed a 50% inhibitory concentration (IC50) of 384 nM. As for `COc1cc2c(cc1OCCN1CC1)ncc1c(N)nc3c(C)c(N)ccc3c12` [Ib-19, 10-(2-aziridin-1-ylethoxy)-11-methoxy-4-methyldibenzo[c,f]-2,7-naphthyridine-3,6-diamine], the figure is 482 nM; as for `COc1cc2c(cc1NCCCN1CCOCC1)ncc1c(N)nc3c(C)c(N)ccc3c12` [Ib-8, 11-methoxy-4-methyl-N^10-(3-morpholin-4-ylpropyl)dibenzo[c,f]-2,7-naphthyridine-3,6,10-triamine], 290 nM. As for `COc1cc2c(cc1OC[C@@H]1CCCN1Cc1ccccc1)ncc1c(N)nc3c(C)c(N)ccc3c12` [Ib-43, 10-{[(2S)-1-benzylpyrrolidin-2-yl]methoxy}-11-methoxy-4-methyldibenzo[c,f]-2,7-naphthyridine-3,6-diamine], the figure is 2980 nM; as for `COc1cc2c(cc1NCCCN1CCCC1)ncc1c(N)nc3c(C)c(N)ccc3c12` [Ib-12, 11-methoxy-4-methyl-N^10-(3-pyrrolidin-1-ylpropyl)dibenzo[c,f]-2,7-naphthyridine-3,6,10-triamine], 846 nM; as for `COc1cc2c(cc1OCCN1CCCC1)ncc1c(N)nc3c(C)c(N)ccc3c12` [Ib-22, 11-methoxy-4-methyl-10-(2-pyrrolidin-1-ylethoxy)dibenzo[c,f]-2,7-naphthyridine-3,6-diamine], 261 nM. With `COc1cc2c(cc1OCCN(C)CCN(C)C)ncc1c(N)nc3c(C)c(N)ccc3c12` [Ib-30, 10-{2-[[2-(dimethylamino)ethyl](methyl)amino]ethoxy}-11-methoxy-4-methyldibenzo[c,f]-2,7-naphthyridine-3,6-diamine] the figure was 281 nM. As for `COc1cc2c(cc1NCCCN1CCN(C)CC1)ncc1c(N)nc3c(C)c(N)ccc3c12` [Ib-7, 11-methoxy-4-methyl-N^10-[3-(4-methylpiperazin-1-yl)propyl]dibenzo[c,f]-2,7-naphthyridine-3,6,10-triamine], the IC50 was found to be 555 nM.

As for `COc1cc2ncc3cnc4c(C)c(N)ccc4c3c2cc1OC` [Compound I-3, 10,11-dimethoxy-4-methyldibenzo[c,f]-2,7-naphthyridin-3-amine], half-maximal inhibition (IC50) required 2500 nM. With `COc1cc2c(cc1OCCCN(C)C)ncc1c(N)nc3c(C)c(N)ccc3c12` [Ib-21, 10-[3-(dimethylamino)propoxy]-11-methoxy-4-methyldibenzo[c,f]-2,7-naphthyridine-3,6-diamine] the figure was 196 nM; with `COc1cc2ncc3c(N)nc4c(C)c(O)ccc4c3c2cc1OC` [Ib-50, 6-amino-10,11-dimethoxy-4-methyldibenzo[c,f]-2,7-naphthyridin-3-ol], 46 nM; with `COc1cc2c(cc1OCC1CCCN(C)C1)ncc1c(N)nc3c(C)c(N)ccc3c12` (stereo not shown) [Ib-34, 11-methoxy-4-methyl-10-[(1-methylpiperidin-3-yl)methoxy]dibenzo[c,f]-2,7-naphthyridine-3,6-diamine], 1770 nM.

For `COc1cc2c(cc1OC[C@@H]1CCCN1C[C@@H]1CCCN1C)ncc1c(N)nc3c(C)c(N)ccc3c12` [Ib-44, 11-methoxy-4-methyl-10-[((2S)-1-{[(2S)-1-methylpyrrolidin-2-yl]methyl}pyrrolidin-2-yl)methoxy]dibenzo[c,f]-2,7-naphthyridine-3,6-diamine], half-maximal inhibition (IC50) was put at 949 nM. With `COc1cc2c(cc1OCCCN1CCCCC1)ncc1c(N)nc3c(C)c(N)ccc3c12` [Ib-29, 11-methoxy-4-methyl-10-(3-piperidin-1-ylpropoxy)dibenzo[c,f]-2,7-naphthyridine-3,6-diamine] the figure was 243 nM. With `COc1cc2ncc3c(N)nc4c(C)c(N5C(=O)c6ccccc6C5=O)ccc4c3c2cc1OC` [Ib-36, 2-(6-amino-10,11-dimethoxy-4-methyldibenzo[c,f]-2,7-naphthyridin-3-yl)-1H-isoindole-1,3(2H)-dione] the figure was 1730 nM; with `COc1cc2c(cc1OCCC(C)(C)C)ncc1c(N)nc3c(C)c(N)ccc3c12` [Ib-41, 10-(3,3-dimethylbutoxy)-11-methoxy-4-methyldibenzo[c,f]-2,7-naphthyridine-3,6-diamine], 6440 nM. Compound `COc1cc2c(cc1O)ncc1c(N)nc3c(C)c(N)ccc3c12` [Ib-48, 7,10-diamino-2-methoxy-9-methyldibenzo[c,f]-2,7-naphthyridin-3-ol] gave an IC50 of 1370 nM. With `COc1cc2ncc3c(N)nc4c(C)c(OC)ccc4c3c2cc1OC` [Ib-51, 3,10,11-trimethoxy-4-methyldibenzo[c,f]-2,7-naphthyridin-6-amine] the figure was 48.7 nM; with `COc1cc2c(cc1OCCN1CCCCCC1)ncc1c(N)nc3c(C)c(N)ccc3c12` [Ib-28, 10-(2-azepan-1-ylethoxy)-11-methoxy-4-methyldibenzo[c,f]-2,7-naphthyridine-3,6-diamine], 350 nM.

`COc1cc2ncc3c(N)nc4c(C)c(Cl)ccc4c3c2cc1OC` [Ib-49, 3-chloro-10,11-dimethoxy-4-methyldibenzo[c,f]-2,7-naphthyridin-6-amine] displayed an IC50 of 2220 nM. This IC50 is about 6.3-fold higher than that of the compound before.

For the compound `COc1cc2ncc3c(N)nc4c(C)cccc4c3c2cc1OC` [Ib-39, 10,11-dimethoxy-4-methyldibenzo[c,f]-2,7-naphthyridin-6-amine], the IC50 is 258 nM. With `COc1cc2c(cc1NCCN(C)C)ncc1c(N)nc3c(C)c(N)ccc3c12` [Ib-14, N^10-[2-(dimethylamino)ethyl]-11-methoxy-4-methyldibenzo[c,f]-2,7-naphthyridine-3,6,10-triamine] the figure was 2410 nM; with `COc1cc2c(cc1OCCc1ccccn1)ncc1c(N)nc3c(C)c(N)ccc3c12` [Ib-24, 11-methoxy-4-methyl-10-(2-pyridin-2-ylethoxy)dibenzo[c,f]-2,7-naphthyridine-3,6-diamine], 2860 nM; with `COc1cc2c(cc1OCCC(C)C)ncc1c(N)nc3c(C)c(N)ccc3c12` [Ib-40, 11-methoxy-4-methyl-10-(3-methylbutoxy)dibenzo[c,f]-2,7-naphthyridine-3,6-diamine], 1180 nM. With `CNc1nc2c(C)c(N)ccc2c2c1cnc1cc(OC)c(OC)cc12` [Ic-1, 10,11-dimethoxy-N-6,4-dimethyldibenzo[c,f]-2,7-naphthyridine-3,6-diamine] the figure was 36600 nM; with `COc1cc2c(cc1F)ncc1c(N)nc3c(C)c(N)ccc3c12` [Ib-4, 10-fluoro-11-methoxy-4-methyldibenzo[c,f]-2,7-naphthyridine-3,6-diamine], 388 nM. With `COc1cc2c(cc1OCCCN1CCOCC1)ncc1c(N)nc3c(C)c(N)ccc3c12` [Ib-11, 11-methoxy-4-methyl-10-(3-morpholin-4-ylpropoxy)dibenzo[c,f]-2,7-naphthyridine-3,6-diamine] the figure was 121 nM; with `COc1cc2c(cc1OCCN1CCOCC1)ncc1c(N)nc3c(C)c(N)ccc3c12` [Ib-10, 11-methoxy-4-methyl-10-(2-morpholin-4-ylethoxy)dibenzo[c,f]-2,7-naphthyridine-3,6-diamine], 57.5 nM. On to `CCN(CC)CCCOc1cc2ncc3c(N)nc4c(C)c(N)ccc4c3c2cc1OC` [Ib-27, 10-[3-(diethylamino)propoxy]-11-methoxy-4-methyldibenzo[c,f]-2,7-naphthyridine-3,6-diamine], for which the IC50 stood at 295 nM. Against the preceding compound, the IC50 is about 5.1-fold higher. The compound `COc1cc2c(cc1OCCC1CCCC1)ncc1c(N)nc3c(C)c(N)ccc3c12` [Ib-45, 10-(2-cyclopentylethoxy)-11-methoxy-4-methyldibenzo[c,f]-2,7-naphthyridine-3,6-diamine] returned an IC50 of 4530 nM. This IC50 is about 15-fold higher than that of the compound before. The compound `COc1cc2c(cc1OCCC1CC1)ncc1c(N)nc3c(C)c(N)ccc3c12` [Ib-46, 10-(2-cyclopropylethoxy)-11-methoxy-4-methyldibenzo[c,f]-2,7-naphthyridine-3,6-diamine] displayed a half-maximal inhibitory concentration (IC50) of 212 nM. As for `COc1cc2ncc3c(N)nc4c(C)c(N)ccc4c3c2cc1OC` [Ib-2, 10,11-dimethoxy-4-methyldibenzo[c,f]-2,7-naphthyridine-3,6-diamine], the figure is 93 nM.
